Data published in PubChem BioAssay (NCI).
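Step 1: Grow cells in 96-well plates. Step 2: Expose to compound for 48 hours at 5 concentrations. Step 3: Interpolate endpoints linearly; if unreached, use highest concentration. GI50 = concentration required for 50% inhibition of growth. TGI marks complete inhibition of growth.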

Columns and labels:
Assay in all cases: growth of human tumour cells (NCI), 48 h
MALME-3M melanoma = test system: MALME-3M melanoma
UO-31 renal = test system: UO-31 renal
NCI/ADR-RES ovarian = test system: NCI/ADR-RES ovarian
SK-MEL-28 melanoma = test system: SK-MEL-28 melanoma
MOLT-4 leukemia = test system: MOLT-4 leukemia
CAKI-1 renal = test system: CAKI-1 renal
MDA-MB-231 breast = test system: MDA-MB-231 breast
NCI-H522 lung = test system: NCI-H522 lung
SW-620 colon = test system: SW-620 colon
SNB-19 CNS = test system: SNB-19 CNS

## COc1ccc(S(=O)(=O)Nc2cc(Sc3cccc4cccnc34)c(O)c3ccccc23)cc1
MALME-3M melanoma
  GI50: 2.88 µM
  TGI: 11.5 µM
UO-31 renal
  GI50: 0.926 µM
  TGI: 8.61 µM
NCI/ADR-RES ovarian
  GI50: 0.707 µM
  TGI: 12.2 µM
SK-MEL-28 melanoma
  GI50: 2.55 µM
  TGI: 13.2 µM
MOLT-4 leukemia
  GI50: 0.563 µM
  TGI: 8.08 µM
CAKI-1 renal
  GI50: 2.53 µM
  TGI: 10.5 µM
MDA-MB-231 breast
  GI50: 0.992 µM
  TGI: 12.5 µM
NCI-H522 lung
  GI50: 1.36 µM
  TGI: 3.74 µM
SW-620 colon
  GI50: 0.815 µM
  TGI: 3.62 µM

## Cc1cc(O)c(C(C)C)cc1C(=S)Nc1ccc(Cl)cc1
MALME-3M melanoma
  TGI: 21.9 µM
NCI/ADR-RES ovarian
  TGI: 34.5 µM
SK-MEL-28 melanoma
  TGI: 28.6 µM
MOLT-4 leukemia
  TGI: 19 µM
CAKI-1 renal
  TGI: 27.9 µM
NCI-H522 lung
  TGI: 17.8 µM
SW-620 colon
  TGI: 33.9 µM

## O=C(CN1CCN(c2ccccn2)CC1)N1CCCn2c1nc1ccccc1c2=O
MALME-3M melanoma
  TGI: > 100 µM
UO-31 renal
  TGI: > 100 µM
NCI/ADR-RES ovarian
  TGI: > 100 µM
MOLT-4 leukemia
  TGI: > 100 µM
SNB-19 CNS
  TGI: > 100 µM
CAKI-1 renal
  TGI: > 100 µM
MDA-MB-231 breast
  TGI: > 100 µM
NCI-H522 lung
  TGI: > 100 µM
SW-620 colon
  TGI: > 100 µM

## COC(=O)C(CNC(=O)/C=C/c1ccc(OC(C)=O)c(OC(C)=O)c1)NC(=O)/C=C/c1ccc(OC(C)=O)c(OC(C)=O)c1 (stereo not drawn)
MALME-3M melanoma
  TGI: > 100 µM
UO-31 renal
  TGI: > 100 µM
SK-MEL-28 melanoma
  TGI: > 100 µM
MOLT-4 leukemia
  TGI: 81.5 µM
SNB-19 CNS
  TGI: > 100 µM
CAKI-1 renal
  TGI: > 100 µM
MDA-MB-231 breast
  TGI: > 100 µM
NCI-H522 lung
  TGI: > 100 µM
SW-620 colon
  TGI: > 100 µM

## CNC(=O)C1OC(n2cnc3c(NCc4cccc(I)c4)nc(Cl)nc32)C(O)C1O (stereo not drawn)
MALME-3M melanoma
  TGI: 19.6 µM
UO-31 renal
  TGI: 24.6 µM
NCI/ADR-RES ovarian
  TGI: 24 µM
MOLT-4 leukemia
  TGI: 53.3 µM
SNB-19 CNS
  TGI: 24.9 µM
CAKI-1 renal
  TGI: 40.7 µM
MDA-MB-231 breast
  TGI: 66.6 µM
SW-620 colon
  TGI: 51.6 µM

## CC(C)N1[C@@H]2CCCC[C@H]2N(C(C)C)[P+]1=O
UO-31 renal
  TGI: > 100 µM
NCI/ADR-RES ovarian
  TGI: > 100 µM
MOLT-4 leukemia
  TGI: > 100 µM
CAKI-1 renal
  TGI: > 100 µM
NCI-H522 lung
  TGI: > 100 µM
SW-620 colon
  TGI: > 100 µM

## Cc1ccc(C)c2c1n1c(=O)n(C)c(=O)n21
MALME-3M melanoma
  TGI: > 100 µM
UO-31 renal
  TGI: > 100 µM
NCI/ADR-RES ovarian
  TGI: > 100 µM
SK-MEL-28 melanoma
  TGI: > 100 µM
SNB-19 CNS
  TGI: > 100 µM
CAKI-1 renal
  TGI: > 100 µM
MDA-MB-231 breast
  TGI: > 100 µM
NCI-H522 lung
  TGI: > 100 µM
SW-620 colon
  TGI: > 100 µM

## O=c1[nH]c2ccc(C(F)(F)F)cc2nc1C(F)(F)F
MALME-3M melanoma
  TGI: 74.2 µM
UO-31 renal
  TGI: 75.6 µM
NCI/ADR-RES ovarian
  TGI: 70.7 µM
SK-MEL-28 melanoma
  TGI: > 100 µM
MOLT-4 leukemia
  TGI: 63.8 µM
SNB-19 CNS
  TGI: > 100 µM
CAKI-1 renal
  TGI: 82.1 µM
MDA-MB-231 breast
  TGI: 96.5 µM
NCI-H522 lung
  TGI: 47.6 µM

## NS(=O)(=O)c1ccc(NCc2nc3ccccc3[nH]2)cc1
MALME-3M melanoma
  TGI: > 100 µM
UO-31 renal
  TGI: > 100 µM
NCI/ADR-RES ovarian
  TGI: > 100 µM
SNB-19 CNS
  TGI: > 100 µM
CAKI-1 renal
  TGI: > 100 µM
MDA-MB-231 breast
  TGI: > 100 µM
NCI-H522 lung
  TGI: > 100 µM

## NNS(=O)(=O)c1ccc(/C=C2\NC(=O)NC2=O)cc1
MALME-3M melanoma
  TGI: > 100 µM
UO-31 renal
  TGI: > 100 µM
NCI/ADR-RES ovarian
  TGI: > 100 µM
SK-MEL-28 melanoma
  TGI: > 100 µM
MOLT-4 leukemia
  TGI: > 100 µM
SNB-19 CNS
  TGI: > 100 µM
CAKI-1 renal
  TGI: > 100 µM
MDA-MB-231 breast
  TGI: > 100 µM
SW-620 colon
  TGI: > 100 µM

## CCOC(=O)CN1C(=O)C(=O)N(c2ccc(OC)c3ccccc23)C1=O
MALME-3M melanoma
  TGI: > 100 µM
UO-31 renal
  TGI: > 100 µM
NCI/ADR-RES ovarian
  TGI: > 100 µM
SK-MEL-28 melanoma
  TGI: > 100 µM
MOLT-4 leukemia
  TGI: > 100 µM
SNB-19 CNS
  TGI: > 100 µM
CAKI-1 renal
  TGI: > 100 µM
NCI-H522 lung
  TGI: > 100 µM
SW-620 colon
  TGI: > 100 µM

## OC(CCl)CN1CC[N+]2(CC1)CC[N+]1(CCN(CC(O)CCl)CC1)CC2 (stereo not drawn)
MALME-3M melanoma
  TGI: > 50 µM
UO-31 renal
  TGI: > 50 µM
SK-MEL-28 melanoma
  TGI: > 50 µM
MOLT-4 leukemia
  TGI: > 50 µM
SNB-19 CNS
  TGI: > 50 µM
CAKI-1 renal
  TGI: > 50 µM
NCI-H522 lung
  TGI: > 50 µM
SW-620 colon
  TGI: > 50 µM
